The numbers were not newly measured in patent publication US20130059872A1, “POLYMORPHS OF ALOGLIPTIN BENZOATE” (MAPI PHARMA LIMITED, priority 2010, published 2013), which cites them from elsewhere.

Molecules are shown by their SMILES.

For this data set the following is noted: DSC data according to WO 2007/035372; recrystallization at 132° C., melt onset at 183° C.

Take `Cn1c(=O)cc(N2CCC[C@@H](N)C2)n(Cc2ccccc2C#N)c1=O` [amorphous form 1 of WO 2007/035372, alogliptin benzoate]: the “solid-state stability of the amorphous phase on heating” value was “crystallized to crystalline form A during heating”.
